Experimental data: patent publication US7396837B2, “Antitumoral analogs of lamellarins” (Pharma Mar, S.A.U., priority 2002, dated 2008)

Columns and labels:
Assay type in all cases: cell-based
K-562 = assay: SRB colorimetric cell growth inhibition assay, K-562; details: Homo sapiens, K562, K-562; for GI50: GI=growth inhibition, read-out: GI50 K-562; for CC50: cell killing (cytotoxic effect), read-out: LC50 K-562; for IC (TGI): total growth inhibition (cytostatic effect), read-out: TGI K-562
Procedure, shortened: (§1)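 Sulforhodamine B colorimetric readout measured cell growth and viability after continuous compound exposure of human cancer cell lines in 96-well plates. Triplicate wells gave mean ± SD, from which growth inhibition (GI), cytostatic total growth inhibition (TGI) and cytotoxic cell killing (LC) were calculated.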

A-549 = assay: SRB colorimetric cell growth inhibition assay, A-549; details: Homo sapiens, A549, A-549; for GI50: GI=growth inhibition, read-out: GI50 A-549; for CC50: cell killing (cytotoxic effect), read-out: LC50 A-549; for IC (TGI): total growth inhibition (cytostatic effect), read-out: TGI A-549
Procedure, shortened: as §1

SK-MEL-28 = assay: SRB colorimetric cell growth inhibition assay, SK-MEL-28; details: Homo sapiens, SK-MEL-28, MEL-28; for GI50: GI=growth inhibition, read-out: GI50 MEL-28; for CC50: cell killing (cytotoxic effect), read-out: LC50 MEL-28; for IC (TGI): total growth inhibition (cytostatic effect), read-out: TGI MEL-28
Procedure, shortened: as §1

HT-29 = assay: SRB colorimetric cell growth inhibition assay, HT-29; details: Homo sapiens, HT-29, HT-29; for GI50: GI=growth inhibition, read-out: GI50 HT-29; for CC50: cell killing (cytotoxic effect), read-out: LC50 HT-29; for IC (TGI): total growth inhibition (cytostatic effect), read-out: TGI HT-29
Procedure, shortened: as §1

LoVo = assay: SRB colorimetric cell growth inhibition assay, LoVo; details: Homo sapiens, LoVo; for GI50: GI=growth inhibition, read-out: GI50 LOVO; for CC50: cell killing (cytotoxic effect), read-out: LC50 LOVO; for IC (TGI): total growth inhibition (cytostatic effect), read-out: TGI LOVO
Procedure, shortened: as §1

LoVo-Dox = assay: SRB colorimetric cell growth inhibition assay, LoVo-Dox (MDR); details: Homo sapiens, LOVO-DOX; for GI50: GI=growth inhibition, read-out: GI50 LOVO-DOX; for CC50: cell killing (cytotoxic effect), read-out: LC50 LOVO-DOX; for IC (TGI): total growth inhibition (cytostatic effect), read-out: TGI LOVO-DOX
Procedure, shortened: as §1

DU-145 = assay: SRB colorimetric cell growth inhibition assay, DU-145; details: Homo sapiens, DU-145, DU-145; for GI50: GI=growth inhibition, read-out: GI50 DU-145; for CC50: cell killing (cytotoxic effect), read-out: LC50 DU-145; for IC (TGI): total growth inhibition (cytostatic effect), read-out: TGI DU-145
Procedure, shortened: as §1

LNCaP = assay: SRB colorimetric cell growth inhibition assay, LNCaP; details: Homo sapiens, LNCaP, LN-caP; for GI50: GI=growth inhibition, read-out: GI50 LN-caP; for CC50: cell killing (cytotoxic effect), read-out: LC50 LN-caP; for IC (TGI): total growth inhibition (cytostatic effect), read-out: TGI LN-caP
Procedure, shortened: as §1

SK-BR-3 = assay: SRB colorimetric cell growth inhibition assay, SK-BR-3; details: Homo sapiens, SK-BR-3, SK-BR-3; for GI50: GI=growth inhibition, read-out: GI50 SK-BR-3; for CC50: cell killing (cytotoxic effect), read-out: LC50 SK-BR-3; for IC (TGI): total growth inhibition (cytostatic effect), read-out: TGI SK-BR-3
Procedure, shortened: as §1

IGROV = assay: SRB colorimetric cell growth inhibition assay, IGROV; details: Homo sapiens, IGROV; for GI50: GI=growth inhibition, read-out: GI50 IGROV; for CC50: cell killing (cytotoxic effect), read-out: LC50 IGROV; for IC (TGI): total growth inhibition (cytostatic effect), read-out: TGI IGROV
Procedure, shortened: as §1

IGROV-ET = assay: SRB colorimetric cell growth inhibition assay, IGROV-ET (ET-743 resistant); details: Homo sapiens, IGROV-ET; for GI50: GI=growth inhibition, read-out: GI50 IGROV-ET; for CC50: cell killing (cytotoxic effect), read-out: LC50 IGROV-ET; for IC (TGI): total growth inhibition (cytostatic effect), read-out: TGI IGROV-ET
Procedure, shortened: as §1

HeLa = assay: SRB colorimetric cell growth inhibition assay, HeLa; details: Homo sapiens, HeLa; for GI50: GI=growth inhibition, read-out: GI50 HELA; for CC50: cell killing (cytotoxic effect), read-out: LC50 HELA; for IC (TGI): total growth inhibition (cytostatic effect), read-out: TGI HELA
Procedure, shortened: as §1

HeLa-APL = assay: SRB colorimetric cell growth inhibition assay, HeLa-APL (aplidine resistant); details: Homo sapiens, HELA-APL; for GI50: GI=growth inhibition, read-out: GI50 HELA-APL; for CC50: cell killing (cytotoxic effect), read-out: LC50 HELA-APL; for IC (TGI): total growth inhibition (cytostatic effect), read-out: TGI HELA-APL
Procedure, shortened: as §1

PANC-1 = assay: SRB colorimetric cell growth inhibition assay, PANC-1; details: Homo sapiens, PANC-1, PANC-1; for GI50: GI=growth inhibition, read-out: GI50 PANC-1; for CC50: cell killing (cytotoxic effect), read-out: LC50 PANC-1; for IC (TGI): total growth inhibition (cytostatic effect), read-out: TGI PANC-1
Procedure, shortened: as §1

Structure (SMILES): COc1cc(-c2c3c4cc(OC)c(OC(=O)[C@@H](N)CC(C)C)cc4oc(=O)c3n3ccc4cc(OC(=O)[C@@H](N)CC(C)C)c(OC)cc4c23)ccc1OC(=O)[C@@H](N)CC(C)C [Compound 181]
- GI50 (K-562): 0.0328 µM
- CC50 (K-562): 7.14 µM
- IC (TGI) (K-562): 0.444 µM
- GI50 (A-549): 0.0198 µM
- CC50 (A-549): 8.18 µM
- IC (TGI) (A-549): 0.209 µM
- GI50 (SK-MEL-28): 0.0168 µM
- CC50 (SK-MEL-28): 2.14 µM
- IC (TGI) (SK-MEL-28): 0.0956 µM
- GI50 (HT-29): 3.06 µM
- CC50 (HT-29): 10.5 µM
- IC (TGI) (HT-29): 10.5 µM
- GI50 (LoVo): 0.331 µM
- CC50 (LoVo): 10.5 µM
- IC (TGI) (LoVo): 1.1 µM
- GI50 (LoVo-Dox): 0.0945 µM
- CC50 (LoVo-Dox): 10.5 µM
- IC (TGI) (LoVo-Dox): 0.47 µM
- GI50 (DU-145): 0.0249 µM
- CC50 (DU-145): 10.5 µM
- IC (TGI) (DU-145): 0.0594 µM
- GI50 (LNCaP): 0.0593 µM
- CC50 (LNCaP): 0.678 µM
- IC (TGI) (LNCaP): 0.237 µM
- GI50 (SK-BR-3): 0.0206 µM
- CC50 (SK-BR-3): 0.862 µM
- IC (TGI) (SK-BR-3): 0.0592 µM
- GI50 (IGROV): 0.038 µM
- CC50 (IGROV): 3.2 µM
- IC (TGI) (IGROV): 0.231 µM
- GI50 (IGROV-ET): 0.05 µM
- CC50 (IGROV-ET): 10.5 µM
- IC (TGI) (IGROV-ET): 0.341 µM
- GI50 (HeLa): 0.0478 µM
- CC50 (HeLa): 10.5 µM
- IC (TGI) (HeLa): 0.632 µM
- GI50 (HeLa-APL): 0.0667 µM
- CC50 (HeLa-APL): 8.14 µM
- IC (TGI) (HeLa-APL): 0.477 µM
- GI50 (PANC-1): 0.0864 µM
- CC50 (PANC-1): 10.5 µM
- IC (TGI) (PANC-1): 2.09 µM

Structure (SMILES): COc1cc(-c2c3c4cc(OC)c(O)cc4oc(=O)c3n3ccc4c(N)cccc4c23)ccc1O [Compound 182]
- GI50 (K-562): 0.316 µM
- CC50 (K-562): 21.3 µM
- IC (TGI) (K-562): 4.85 µM
- GI50 (A-549): 9.58 µM
- CC50 (A-549): 21.3 µM
- IC (TGI) (A-549): 21.3 µM
- GI50 (SK-MEL-28): 1.08 µM
- CC50 (SK-MEL-28): 21.3 µM
- IC (TGI) (SK-MEL-28): 21.3 µM
- GI50 (HT-29): 21.3 µM
- CC50 (HT-29): 21.3 µM
- IC (TGI) (HT-29): 21.3 µM
- GI50 (LoVo): 21.3 µM
- CC50 (LoVo): 21.3 µM
- IC (TGI) (LoVo): 21.3 µM
- GI50 (LoVo-Dox): 1.21 µM
- CC50 (LoVo-Dox): 21.3 µM
- IC (TGI) (LoVo-Dox): 21.3 µM
- GI50 (DU-145): 1.08 µM
- CC50 (DU-145): 21.3 µM
- IC (TGI) (DU-145): 21.3 µM
- GI50 (LNCaP): 1.75 µM
- CC50 (LNCaP): 21.3 µM
- IC (TGI) (LNCaP): 21.3 µM
- GI50 (SK-BR-3): 0.365 µM
- CC50 (SK-BR-3): 12 µM
- IC (TGI) (SK-BR-3): 1.25 µM
- GI50 (IGROV): 2.86 µM
- CC50 (IGROV): 21.3 µM
- IC (TGI) (IGROV): 21.3 µM
- GI50 (IGROV-ET): 3.16 µM
- CC50 (IGROV-ET): 21.3 µM
- IC (TGI) (IGROV-ET): 21.3 µM
- GI50 (HeLa): 8.52 µM
- CC50 (HeLa): 21.3 µM
- IC (TGI) (HeLa): 21.3 µM
- GI50 (HeLa-APL): 4.46 µM
- CC50 (HeLa-APL): 21.3 µM
- IC (TGI) (HeLa-APL): 21.3 µM
- GI50 (PANC-1): 4.85 µM
- CC50 (PANC-1): 21.3 µM
- IC (TGI) (PANC-1): 21.3 µM
